Experimental data taken from patent US7074765B2, “Synthetic peptide analogs of Arg-Pro-Pro-Gly-Phe as selective inhibitors of thrombin and thrombin activation of protease activated receptors 1 and 4” (The Regents of the University of Michigan, priority 2003, dated 2006).

Test system: PC-3 cells
Assay: Thrombin-induced motility of prostate cancer cells (Boyden chamber)
Assay type: cell-based
Conditions: 100 μM; 2 nM α-thrombin
Protocol: Motility assays are performed with a modified Boyden chamber (tissue culture-treated, 6.5 mm diameter, 10 μm thickness, 8 μm pores). In the motility assays, 2.5×10^4 cells are plated in the top chamber of non-coated polyethylene teraphthalate (PET) membranes (24-well insert, pore size […]; Becton Dickinson). […] RPMI 10% fetal bovine serum is used as a chemoattractant in the lower chamber. […] The cells that transverse the membranes are stained with Dip-Quick (Jorgensen Laboratories, Loveland, Colo.). Cells in five random fields of view at 200× are counted and expressed as the average number of cells/field of view. […]

Q: For “β-Ala-Lys-2Lys-4(D-Arg-Oic-Pro-Gly-Phe) [MAP4-rOicPGF]”, which “effect on thrombin-induced PC-3 cell motility” value is on record?
A: block
